Drawing on patent US9255090B2, “Heterocyclyl derivatives and their use as prostaglandin D2 receptor modulators” (Actelion Pharmaceuticals Ltd., priority 2012, dated 2016), this text covers IC50 for 28 compounds.

pIC50: −log10 of the molar value.

One test concerns eosinophils. The test is described as follows: Eosinophil shape change assay with human plasma. Conditions: human plasma (50%), PGD2 100 nM activation, antagonistic activity. The test is classed as cell-based. From the text:
Eosinophil Shape Change Assay with Human Plasma
After obtaining informed consent, blood samples were drawn by venipuncture according to the protocol approved by the ethics committee of Basel, Switzerland. Polymorphonuclear leukocytes (containing eosinophils, basophils and neutrophils) were isolated using the Polymorphprep™ method (Axis-Shield). […] The polymorphonuclear cell fraction was harvested and depleted for erythrocytes by hypotonic saline lysis.
The polymorphonuclear cells were resuspended in assay buffer (1×PBS with Ca^2+/Mg^2+ supplemented with 0.1% BSA, 10 mM HEPES, and 10 mM Glucose, pH 7.4) at 5×10^6 cells/ml and stained with anti-CD49d-APC ((APC=Allophycocyanin) for 1 hour at RT. Test compounds, at various concentrations, were preincubated 10 min in human plasma (anticoagulated with a thrombin inhibitor). Then, human plasma was added to the polymorphonuclear cells to 50% of final assay volume with polymorphonuclear cells at 4×10^6 cells/ml. After incubation for 10 minutes at 37° C., the polymorphonuclear cells were activated for 5 min at 37° C. by addition of PGD2 at 100 nM final concentration. Activation was stopped by addition of 0.5 ml paraformaldehyde (1%).
Immediately after fixation with paraformaldehyde, the samples were analyzed by FACSCanto flow cytometer (BD Biosciences) and target cells were identified by their forward-scatter (FSC) and side-scatter (SSC) characteristics. Eosinophils were identified by the anti-CD49d-APC signal and their characteristic side-scatter (SSC) profile. Shape change responses, indicative of eosinophil activation, were quantified as the percent of cells with an increased forward-scatter.

The target of a further test is hCRTH2 receptor (Homo sapiens (Human), UniProt Q9Y5Y4). The test is described as follows: hCRTH2 receptor membranes radioligand (3H-PGD2) displacement assay. The test is classed as binding. To be noted: 3H-PGD2 radioligand displacement, HEK293-hCRTH2 membranes. The essentials: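 Compound was first mixed with buffer, then 3H-PGD2 was added at 2.5 nM, and the reaction was started with hCRTH2 membranes from HEK293 cells at 20 μg/well. After 90 min at room temperature, mixtures were filtered and washed with ice-cold buffer, and retained radioactivity was counted.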
Chain of hCRTH2 receptor (Q9Y5Y4 whole entry): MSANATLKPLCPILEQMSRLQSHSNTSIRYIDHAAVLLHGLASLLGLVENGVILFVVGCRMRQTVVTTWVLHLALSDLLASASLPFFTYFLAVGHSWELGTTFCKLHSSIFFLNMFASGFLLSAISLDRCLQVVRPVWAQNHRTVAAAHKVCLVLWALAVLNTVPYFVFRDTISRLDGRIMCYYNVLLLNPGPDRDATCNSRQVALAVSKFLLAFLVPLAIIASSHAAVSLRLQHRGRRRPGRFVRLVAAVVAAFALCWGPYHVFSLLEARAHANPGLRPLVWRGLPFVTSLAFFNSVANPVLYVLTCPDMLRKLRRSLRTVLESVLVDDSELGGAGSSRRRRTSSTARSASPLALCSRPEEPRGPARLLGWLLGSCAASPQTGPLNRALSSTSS

As to `CCOc1cc(CC(=O)O)ccc1-c1ccc(F)c2c1CN(C(=O)CC(C)c1ccccn1)CC2` (racemic) [Example 344], the pIC50 was 7.29 in the test with eosinophils (Homo sapiens, Eosinophil) and 9.05 at hCRTH2 receptor.
The matching figures for `O=C(O)Cc1ccc(OC(F)(F)F)c(-c2ccc(F)c3c2CN(C(=O)OCc2ccccc2)CC3)c1` [Example 21, 8-(5-Carboxymethyl-2-trifluoromethoxy-phenyl)-5-fluoro-3,4-dihydro-1H-isoquinoline-2-carboxylic acid benzyl ester]: 7.19 and 8.66.
The matching figures for `CCOc1ccc(CC(=O)O)cc1-c1ccc(F)c2c1CN(C(=O)CC(C)(C)c1ccccc1)CC2` [Example 225, {4-Ethoxy-3-[5-fluoro-2-(3-methyl-3-phenyl-butyryl)-1,2,3,4-tetrahydro-isoquinolin-8-yl]-phenyl}-acetic acid]: 7.43 and 7.93.
The matching figures for `COc1ccc(CC(=O)O)cc1-c1ccc(F)c2c1CN(C(=O)CN(C)C(c1ccccc1)c1ccc(Cl)cc1)CC2` (racemic) [Example 253]: 6.40 and 7.97.
As to `CCOc1cc(CC(=O)O)ccc1-c1ccc(F)c2c1CN(C(=O)CC1(c3ccccc3)CC1)CC2` [Example 230, (3-Ethoxy-4-{5-fluoro-2-[2-(1-phenyl-cyclopropyl)-acetyl]-1,2,3,4-tetrahydro-isoquinolin-8-yl}-phenyl)-acetic acid], the pIC50 in the test on eosinophils (Homo sapiens, Eosinophil) is 7.72; on hCRTH2 receptor it was 9.00.
Regarding `COc1ccc(CC(=O)O)cc1-c1cc(F)cc2c1CN(C(=O)OCc1ccccc1)CC2` [Example 32, 8-(5-Carboxymethyl-2-methoxy-phenyl)-6-fluoro-3,4-dihydro-1H-isoquinoline-2-carboxylic acid benzyl ester], the pIC50 with eosinophils (Homo sapiens, Eosinophil) was 6.45; on hCRTH2 receptor, 7.98.
For `COc1ccc(CC(=O)O)cc1-c1ccc(F)c2c1CN(C(=O)COCc1ccccc1Cl)CC2` [Example 58, (3-{2-[2-(2-Chloro-benzyloxy)-acetyl]-5-fluoro-1,2,3,4-tetrahydro-isoquinolin-8-yl}-4-methoxy-phenyl)-acetic acid], the pIC50 in the test on eosinophils (Homo sapiens, Eosinophil) was 6.91; on hCRTH2 receptor, 8.45.
The matching figures for `CCOc1ccc(CC(=O)O)cc1-c1ccc(F)c2c1CN(C(=O)CC1COc3ccccc3C1)CC2` (racemic) [Example 332]: 7.82 and 7.93.
With `COc1ccc(CC(=O)O)cc1-c1ccc(F)c2c1CN(C(=O)OCc1cccc(F)c1F)CC2` [Example 147, 8-(5-Carboxymethyl-2-methoxy-phenyl)-5-fluoro-3,4-dihydro-1H-isoquinoline-2-carboxylic acid 2,3-difluoro-benzyl ester], the pIC50 was 6.21 with eosinophils (Homo sapiens, Eosinophil) and 8.60 on hCRTH2 receptor.
The corresponding values for `COc1ccc(CC(=O)O)cc1-c1ccc(Cl)c2c1CN(C(=O)[C@@H]1C[C@H]1c1ccccc1)CC2` [Example 71, {3-[5-Chloro-2-((1R,2R)-2-phenyl-cyclopropanecarbonyl)-1,2,3,4-tetrahydro-isoquinolin-8-yl]-4-methoxy-phenyl}-acetic acid] are 7.66 and 8.77.
The matching figures for `COc1ccc(CC(=O)O)cc1-c1ccc(F)c2c1CN(C(=O)CC(C)(C)c1ccccc1)CC2` [Example 108, {3-[5-Fluoro-2-(3-methyl-3-phenyl-butyryl)-1,2,3,4-tetrahydro-isoquinolin-8-yl]-4-methoxy-phenyl}-acetic acid]: 7.04 and 8.00.
Consider `CCOc1cc(CC(=O)O)ccc1-c1ccc(F)c2c1CN(C(=O)OCc1ccccc1)CC2` [Example 410, 8-(4-Carboxymethyl-2-ethoxy-phenyl)-5-fluoro-3,4-dihydro-1H-isoquinoline-2-carboxylic acid benzyl ester], for which the pIC50 in the test with eosinophils (Homo sapiens, Eosinophil) is 7.89; at hCRTH2 receptor, 7.59.
The corresponding values for `CCOc1ccc(CC(=O)O)cc1-c1ccc(F)c2c1CN(C(=O)CC(C)(C)c1ccc(F)cc1)CC2` [Example 223, (4-Ethoxy-3-{5-fluoro-2-[3-(4-fluoro-phenyl)-3-methyl-butyryl]-1,2,3,4-tetrahydro-isoquinolin-8-yl}-phenyl)-acetic acid] are 7.72 and 7.82.
The corresponding values for `COc1ccc(CC(=O)O)cc1-c1cc(F)c(F)c2c1CN(C(=O)[C@@H]1C[C@H]1c1ccccc1)CC2` [Example 84, {3-[5,6-Difluoro-2-((1R,2R)-2-phenyl-cyclopropanecarbonyl)-1,2,3,4-tetrahydro-isoquinolin-8-yl]-4-methoxy-phenyl}-acetic acid] are 8.30 and 8.32.
Take `CCOc1ccc(CC(=O)O)cc1-c1ccc(F)c2c1CN(C(=O)OCc1ccccc1F)CC2` [Example 400, 8-(5-Carboxymethyl-2-ethoxy-phenyl)-5-fluoro-3,4-dihydro-1H-isoquinoline-2-carboxylic acid 2-fluoro-benzyl ester]: the pIC50 in the test with eosinophils (Homo sapiens, Eosinophil) was 7.68; on hCRTH2 receptor it was 7.89.
The matching figures for `CCOc1ccc(CC(=O)O)cc1-c1ccc(F)c2c1CN(C(=O)CC1(c3cccc(F)c3)CC1)CC2` [Example 275, [4-Ethoxy-3-(5-fluoro-2-{2-[1-(3-fluoro-phenyl)-cyclopropyl]-acetyl}-1,2,3,4-tetrahydro-isoquinolin-8-yl)-phenyl]-acetic acid]: 7.12 and 8.17.
In the case of `CC(C)Oc1ccc(CC(=O)O)cc1-c1ccc(C#N)c2c1CN(C(=O)OCc1ccccc1)CC2` [Example 431, 8-(5-Carboxymethyl-2-isopropoxy-phenyl)-5-cyano-3,4-dihydro-1H-isoquinoline-2-carboxylic acid benzyl ester], the pIC50 in the test with eosinophils (Homo sapiens, Eosinophil) was 7.33; on hCRTH2 receptor, 8.85.
The matching figures for `CCOc1ccc(CC(=O)O)cc1-c1ccc(F)c2c1CN(C(=O)CC1CCOc3cc(F)ccc31)CC2` (racemic) [Example 335]: 7.59 and 9.05.
The corresponding values for `COc1cc(CC(=O)O)ccc1-c1ccc(F)c2c1CN(C(=O)CCc1cn(C)c3ccccc13)CC2` [Example 183, (4-{5-Fluoro-2-[3-(1-methyl-1H-indol-3-yl)-propionyl]-1,2,3,4-tetrahydro-isoquinolin-8-yl}-3-methoxy-phenyl)-acetic acid] are 6.71 and 9.34.
`COc1cc(CC(=O)O)ccc1-c1ccc(F)c2c1CN(C(=O)CC1CCOc3ccccc31)CC2` (centres unmarked) [Example 200, {4-[2-(2-Chroman-4-yl-acetyl)-5-fluoro-1,2,3,4-tetrahydro-isoquinolin-8-yl]-3-methoxy-phenyl}-acetic acid] had a pIC50 in the test with eosinophils (Homo sapiens, Eosinophil) of 7.30.
The same measure, in the same setting: under `CCOc1ccc(CC(=O)O)cc1-c1ccc(F)c2c1CN(C(=O)CC1COCc3ccccc31)CC2` (racemic) [Example 228] stands 8.10.
In the test with eosinophils, `CCOc1ccc(CC(=O)O)cc1-c1ccc(F)c2c1CN(C(=O)CC1COCc3ccccc31)CC2` (centres unmarked) [Example 210, {4-Ethoxy-3-[5-fluoro-2-(2-isochroman-4-yl-acetyl)-1,2,3,4-tetrahydro-isoquinolin-8-yl]-phenyl}-acetic acid] had a pIC50 of 7.96.
Turning to `CCOc1ccc(CC(=O)O)cc1-c1ccc(F)c2c1CN(C(=O)CC1COc3ccccc31)CC2` (centres unmarked) [Example 207, {3-[2-(2-2,3-Dihydro-benzofuran-3-yl-acetyl)-5-fluoro-1,2,3,4-tetrahydro-isoquinolin-8-yl]-4-ethoxy-phenyl}-acetic acid], the pIC50 in the test with eosinophils was 7.82.
Compound `CCOc1ccc(CC(=O)O)cc1-c1ccc(F)c2c1CN(C(=O)CC1COc3ccccc31)CC2` (racemic) [Example 227] gave a pIC50 in the test with eosinophils (Homo sapiens, Eosinophil) of 7.42.
Same read-out and setting: next, `CCOc1ccc(CC(=O)O)cc1-c1ccc(F)c2c1CN(C(=O)CC1COCc3ccccc31)CC2` (centres unmarked) [Example 209, {4-Ethoxy-3-[5-fluoro-2-(2-isochroman-4-yl-acetyl)-1,2,3,4-tetrahydro-isoquinolin-8-yl]-phenyl}-acetic acid]: 7.89.
On to `CCOc1ccc(CC(=O)O)cc1-c1ccc(F)c2c1CN(C(=O)CC1COc3ccccc31)CC2` (centres unmarked) [Example 208, {3-[2-(2-2,3-Dihydro-benzofuran-3-yl-acetyl)-5-fluoro-1,2,3,4-tetrahydro-isoquinolin-8-yl]-4-ethoxy-phenyl}-acetic acid], for which the pIC50 in the test on eosinophils was 7.38.
The compound `COc1ccc(CC(=O)O)cc1-c1ccc(F)c2c1CN(C(=O)[C@@H]1C[C@H]1c1cccc(F)c1)CC2` (racemic) [Example 48, (±)-(3-{5-Fluoro-2-[trans-2-(3-fluoro-phenyl)-cyclopropanecarbonyl]-1,2,3,4-tetrahydro-isoquinolin-8-yl}-4-methoxy-phenyl)-acetic acid] had a pIC50 in the test with eosinophils (Homo sapiens, Eosinophil) of 7.38.
In the test on eosinophils (Homo sapiens, Eosinophil), `COc1cc(CC(=O)O)ccc1-c1ccc(F)c2c1CN(C(=O)CC1CCOc3ccccc31)CC2` (racemic) [Example 359] had a pIC50 of 7.55. The pIC50 values of the last two compounds are within 0.2 log units of each other.

By pIC50 is commonly meant the IC50 on a negative log10 scale, so that one unit is a factor of ten. A higher pIC50 goes with a low IC50.
